According to publication PMC3231940, “Disposition, metabolism and mass balance of [^14C]apremilast following oral administration” (Xenobiotica; the Fate of Foreign Compounds in Biological …, 2011):
Read-outs that look alike come from different tables or passages of the source.

Assay: Apremilast in plasma by chiral LC/MS/MS, non-compartmental PK
Assay type: in vivo, human
Protocol: Urine was collected pre-dose, 0-4, 4-8, 8-12, 12-24 and every 24 h thereafter up to 216h (9 days) following dose administration and was stabilized with one volume of pH 1.5 Sorensen's citrate buffer (25-mM sodium citrate buffer adjusted to pH 1.5). Individual faecal samples were collected pre-dose and for up to 9 days following dose administration, and homogenized using approximately three volumes by weight of pH 1.5 Sorensen's citrate buffer. Blood (two 5-mL samples for plasma radioactivity counting, a 3-mL sample for whole blood radioactivity counting, a 2-mL sample for apremilast analysis and a 10-mL sample for metabolite profiling) was collected into heparinized tubes at pre-dose, 0.5, 1, 1.5, 2, 2.5, 3, 4, 6, 8, 12, 16, 24, 36, 48, 72, 96, 120, 144 and 168 h following dose administration. Blood samples collected for radioactivity counting were stored at or below -20°C until analysed. Plasma was harvested by centrifugation from all other blood samples. The plasma samples for apremilast analysis and metabolite profiling were mixed with an equal volume of pH 1.5 Sorensen's citrate buffer containing 20-μM amastatin. All urine, faecal homogenates and plasma samples were stored at or below -20°C until analysed.
Plasma concentrations of apremilast were determined using a Chiral liquid chromatography with tandem mass spectrometry (LC/MS/MS) assay validated for concentrations between 1.00 and 1000ng/mL, with quality control (QC) samples prepared at 3.00, 50.0 and 750 ng/mL. Apremilast and (3S-cis)-(+)-tetrahydro-3,7a-diphenylpyrrolo[2, 1-b] oxazol-5(6H)-one (internal standard; IS) were extracted from 50 μL of plasma (stabilized with 50-μL Sorenson's citrate buffer) using liquid-liquid extraction with methyl tertiary butyl ether. The aqueous layer was frozen and the solvent layer was transferred to a new tube. The solvent was evaporated, the samples were reconstituted and injected for LC/MS/MS analysis using a Chiral AGP (150×4.0mm, 5 μm; Chrom Tech, Inc., Apple Valley, MN) analytical column. Positive ions were measured in the multiple reaction monitoring (MRM) mode using a Sciex API-4000 tandem mass spectrometer equipped with a Turbo IonSpray source with precursor→product ion pairs of 461.0→177.9 for apremilast and 280.1→160.3 for IS. For the QC samples, the accuracy ranged from 87.5% to 106.7%.
Pharmacokinetic data were generated by non-compartmental analysis of plasma or whole blood versus time profiles using WinNonlin (version 4.1, Enterprise Edition). For individual subjects, the peak concentration (Cmax), time to Cmax (Tmax), area under the concentration versus time curve from time zero to the last quantifiable concentration (AUC0-t), area under the concentration versus time curve from time zero to infinity (AUC0-∞ and the apparent terminal elimination half-life (t½) were determined. AUC0-t) and AUC0-∞ were calculated using the linear trapezoidal rule. AUC0-∞ was calculated as the sum of […], where Clast, is the last observed quantifiable concentration.

Plasma t½ (chiral LC/MS/MS assay, single oral 20-mg dose, mean ± SD): 6.8 ± 2.6 h
half-life (male, human, plasma, po, 20 mg, chiral LC/MS/MS assay, single oral 20-mg dose, mean ± SD, read-out: Plasma t½ (converted)): ~420 min
AUC (male, human, plasma, po, 20 mg, single oral 20-mg dose, read-out: AUC determined via LC/MS): 1910 ± 339 ng·h/mL
AUC (male, human, plasma, po, 20 mg, single oral dose 20 mg, 100 uCi, read-out: Mean AUC0 in plasma): 1970 ng·h/mL
AUC(0-t) (male, human, plasma, chiral LC/MS/MS assay, single oral 20-mg dose, mean ± SD, read-out: Plasma AUC0-t): 1910 ± 339 ng·h/mL
AUC(0-inf) (male, human, plasma, chiral LC/MS/MS assay, single oral 20-mg dose, mean ± SD, read-out: Plasma AUC0-∞): 1970 ± 343 ng·h/mL
Tmax (male, human, plasma, chiral LC/MS/MS assay, single oral 20-mg dose, median and range): < 2 h
Cmax (male, human, plasma, single oral dose 20 mg, 100 uCi): 333 ng/mL
SMILES: CCOc1cc([C@@H](CS(C)(=O)=O)N2C(=O)c3cccc(NC(C)=O)c3C2=O)ccc1OC [Apremilast, (+)-N-[2-[(lS)-1-(3-ethoxy-4-methoxyphenyl)-2-(methylsulfonyl)ethyl]-1,3-dioxo-2,3-dihydro-lH-isoindol-4-yl]acetamide]
